These results are taken from ChEMBL document CHEMBL5653615 (J Biol Chem, 2013).

Assay [1] deals with T1, Serine/threonine-protein kinase D1 (Homo sapiens) (UniProt Q15139).
T1 sequence (whole entry): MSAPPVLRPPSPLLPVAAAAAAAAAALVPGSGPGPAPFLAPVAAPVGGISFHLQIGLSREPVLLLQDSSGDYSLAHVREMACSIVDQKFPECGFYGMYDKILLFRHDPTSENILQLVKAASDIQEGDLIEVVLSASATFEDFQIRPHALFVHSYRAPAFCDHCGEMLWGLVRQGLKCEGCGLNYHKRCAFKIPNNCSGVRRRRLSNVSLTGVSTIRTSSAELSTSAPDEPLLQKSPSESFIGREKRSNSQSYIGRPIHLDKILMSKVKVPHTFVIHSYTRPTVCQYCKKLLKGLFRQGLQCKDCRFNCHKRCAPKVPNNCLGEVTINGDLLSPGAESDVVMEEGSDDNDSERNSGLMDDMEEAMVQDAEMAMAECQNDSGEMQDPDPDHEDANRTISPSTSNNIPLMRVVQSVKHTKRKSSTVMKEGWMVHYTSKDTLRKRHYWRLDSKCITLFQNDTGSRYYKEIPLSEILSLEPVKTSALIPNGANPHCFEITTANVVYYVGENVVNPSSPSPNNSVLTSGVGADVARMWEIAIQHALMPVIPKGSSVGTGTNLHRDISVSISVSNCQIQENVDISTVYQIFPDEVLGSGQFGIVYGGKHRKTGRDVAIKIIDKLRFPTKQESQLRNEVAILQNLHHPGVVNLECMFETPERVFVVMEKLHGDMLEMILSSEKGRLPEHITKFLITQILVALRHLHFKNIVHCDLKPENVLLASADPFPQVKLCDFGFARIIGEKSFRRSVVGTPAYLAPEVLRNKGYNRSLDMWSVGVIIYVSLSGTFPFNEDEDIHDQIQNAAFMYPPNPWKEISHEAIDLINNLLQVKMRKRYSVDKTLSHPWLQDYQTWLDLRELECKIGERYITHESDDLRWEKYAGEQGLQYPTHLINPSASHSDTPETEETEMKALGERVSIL
In words: Inhibition of human PRKD1 at 18.6 nM by HotSpot assay relative to control.

For assay [2], the target named is Activin receptor type-1-like (Homo sapiens) (UniProt P37023). In words: Inhibition of human ALK1 at 1.82 nM by HotSpot assay relative to control.
Assay [3] concerns the target Calcium/calmodulin-dependent protein kinase type 1 (Homo sapiens) (UniProt Q14012). The experiment in a line: Inhibition of human CAMK1a at 1.82 nM by HotSpot assay relative to control.
The target of assay [4] is Cyclin-dependent kinase 5/CDK5 activator 1 (Homo sapiens) (UniProt Q00535+Q15078). In words: Inhibition of human CDK5/p35 at 1.82 nM by HotSpot assay relative to control. It is filed as protein-complex assay.
Assay [5] addresses T2, Serine/threonine-protein kinase DCLK2 (Homo sapiens) (UniProt Q8N568).
T2 sequence (whole entry): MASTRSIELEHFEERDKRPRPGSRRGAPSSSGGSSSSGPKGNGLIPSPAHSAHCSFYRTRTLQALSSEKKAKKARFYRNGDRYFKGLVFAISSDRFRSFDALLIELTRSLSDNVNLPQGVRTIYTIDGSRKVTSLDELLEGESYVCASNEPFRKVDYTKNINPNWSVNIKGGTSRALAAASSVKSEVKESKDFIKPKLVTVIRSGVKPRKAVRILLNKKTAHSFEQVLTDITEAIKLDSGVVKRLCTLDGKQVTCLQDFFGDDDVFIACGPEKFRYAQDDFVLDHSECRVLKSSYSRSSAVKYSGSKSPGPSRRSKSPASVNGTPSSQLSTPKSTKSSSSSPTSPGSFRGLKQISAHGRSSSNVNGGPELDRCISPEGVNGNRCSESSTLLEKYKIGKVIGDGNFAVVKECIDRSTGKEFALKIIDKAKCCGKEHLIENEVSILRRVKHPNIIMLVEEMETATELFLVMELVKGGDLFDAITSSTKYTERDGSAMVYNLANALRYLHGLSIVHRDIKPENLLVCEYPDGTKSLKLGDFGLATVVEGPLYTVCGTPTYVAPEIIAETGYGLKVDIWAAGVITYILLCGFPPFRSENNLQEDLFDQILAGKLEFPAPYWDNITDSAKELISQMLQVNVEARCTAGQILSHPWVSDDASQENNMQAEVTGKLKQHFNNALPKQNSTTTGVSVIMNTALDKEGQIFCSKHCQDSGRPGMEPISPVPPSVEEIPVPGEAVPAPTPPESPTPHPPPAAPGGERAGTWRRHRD
The experiment in a line: Inhibition of human DCAMKL2 at 1.82 nM by HotSpot assay relative to control.

The target of assay [6] is Ephrin type-A receptor 7 (Homo sapiens) (UniProt Q15375). The experiment in a line: Inhibition of human EPHA7 at 1.82 nM by HotSpot assay relative to control.
The target in assay [7] is G protein-coupled receptor kinase 4 (Homo sapiens) (UniProt P32298). In words: Inhibition of human GRK4 at 1.82 nM by HotSpot assay relative to control.
For assay [8], the target named is Mitogen-activated protein kinase 9 (Homo sapiens) (UniProt P45984). In words: Inhibition of human JNK2 at 1.82 nM by HotSpot assay relative to control.
The target of assay [9] is Mitogen-activated protein kinase kinase kinase 11 (Homo sapiens) (UniProt Q16584). In words: Inhibition of human MAP3K11 at 1.82 nM by HotSpot assay relative to control.
Assay [10] deals with T3, Protein kinase C zeta type (Homo sapiens) (UniProt Q05513).
T3 sequence (whole entry): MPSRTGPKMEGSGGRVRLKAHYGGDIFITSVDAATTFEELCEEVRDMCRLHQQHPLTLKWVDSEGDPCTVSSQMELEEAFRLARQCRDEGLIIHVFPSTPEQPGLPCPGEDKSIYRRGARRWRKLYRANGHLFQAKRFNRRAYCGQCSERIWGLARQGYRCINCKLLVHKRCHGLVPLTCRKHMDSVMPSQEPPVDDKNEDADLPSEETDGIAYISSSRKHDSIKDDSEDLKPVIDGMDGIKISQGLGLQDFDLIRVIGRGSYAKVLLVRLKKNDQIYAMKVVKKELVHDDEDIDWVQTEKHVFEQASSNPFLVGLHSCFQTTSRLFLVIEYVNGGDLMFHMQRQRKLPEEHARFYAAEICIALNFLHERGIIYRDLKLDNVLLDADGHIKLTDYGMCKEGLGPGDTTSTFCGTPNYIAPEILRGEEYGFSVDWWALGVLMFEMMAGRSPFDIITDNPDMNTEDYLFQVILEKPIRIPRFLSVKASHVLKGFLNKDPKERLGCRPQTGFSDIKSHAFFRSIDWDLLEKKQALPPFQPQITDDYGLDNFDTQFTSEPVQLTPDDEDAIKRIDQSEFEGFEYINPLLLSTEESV
In words: Inhibition of human PKCzeta at 1.82 nM by HotSpot assay relative to control.

For assay [11], the target named is Serine/threonine-protein kinase SIK2 (Homo sapiens) (UniProt Q9H0K1). The experiment in a line: Inhibition of human SIK2 at 1.82 nM by HotSpot assay relative to control.
Chain of Serine/threonine-protein kinase SIK2 (Homo sapiens) (Q9H0K1 whole entry, looked up): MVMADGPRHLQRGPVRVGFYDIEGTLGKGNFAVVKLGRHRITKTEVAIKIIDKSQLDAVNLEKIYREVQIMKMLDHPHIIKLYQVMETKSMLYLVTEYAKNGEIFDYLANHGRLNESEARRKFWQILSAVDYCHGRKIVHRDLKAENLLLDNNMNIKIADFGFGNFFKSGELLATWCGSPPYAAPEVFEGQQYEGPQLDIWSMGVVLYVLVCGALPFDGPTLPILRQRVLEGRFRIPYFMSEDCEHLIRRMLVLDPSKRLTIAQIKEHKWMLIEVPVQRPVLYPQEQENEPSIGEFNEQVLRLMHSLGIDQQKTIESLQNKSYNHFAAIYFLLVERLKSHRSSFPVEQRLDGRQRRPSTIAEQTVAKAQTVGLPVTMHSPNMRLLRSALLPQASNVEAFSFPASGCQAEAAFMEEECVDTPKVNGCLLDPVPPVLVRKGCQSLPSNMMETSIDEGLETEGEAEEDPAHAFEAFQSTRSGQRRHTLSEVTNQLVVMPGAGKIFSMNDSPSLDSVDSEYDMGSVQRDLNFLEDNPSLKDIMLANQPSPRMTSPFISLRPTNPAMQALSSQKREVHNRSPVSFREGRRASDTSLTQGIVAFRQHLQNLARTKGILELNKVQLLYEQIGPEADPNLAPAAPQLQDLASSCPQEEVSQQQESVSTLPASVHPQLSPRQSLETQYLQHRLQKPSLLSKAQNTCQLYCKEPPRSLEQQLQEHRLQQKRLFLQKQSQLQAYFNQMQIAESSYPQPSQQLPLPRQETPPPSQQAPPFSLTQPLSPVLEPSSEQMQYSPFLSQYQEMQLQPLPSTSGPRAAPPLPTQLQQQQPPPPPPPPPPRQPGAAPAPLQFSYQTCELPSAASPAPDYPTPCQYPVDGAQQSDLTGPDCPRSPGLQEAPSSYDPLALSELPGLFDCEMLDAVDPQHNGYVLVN

Chain of G protein-coupled receptor kinase 4 (Homo sapiens) (P32298 whole entry, looked up): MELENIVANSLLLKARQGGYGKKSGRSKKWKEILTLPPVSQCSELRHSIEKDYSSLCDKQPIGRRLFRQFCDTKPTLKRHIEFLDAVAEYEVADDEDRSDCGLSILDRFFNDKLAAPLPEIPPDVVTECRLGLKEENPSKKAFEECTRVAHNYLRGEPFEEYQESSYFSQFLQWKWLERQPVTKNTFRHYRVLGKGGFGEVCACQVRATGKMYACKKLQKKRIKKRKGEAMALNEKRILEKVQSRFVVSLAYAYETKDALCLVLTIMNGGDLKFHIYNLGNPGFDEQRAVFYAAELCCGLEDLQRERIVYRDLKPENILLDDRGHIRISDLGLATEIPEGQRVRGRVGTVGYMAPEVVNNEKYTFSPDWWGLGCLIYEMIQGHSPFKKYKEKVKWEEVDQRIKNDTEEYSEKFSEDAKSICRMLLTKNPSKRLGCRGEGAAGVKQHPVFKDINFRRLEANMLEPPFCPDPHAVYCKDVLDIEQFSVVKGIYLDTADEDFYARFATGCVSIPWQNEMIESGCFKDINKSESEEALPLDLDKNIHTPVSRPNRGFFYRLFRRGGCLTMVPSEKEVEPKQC
Chain of Ephrin type-A receptor 7 (Homo sapiens) (Q15375 28-998 limits assumed): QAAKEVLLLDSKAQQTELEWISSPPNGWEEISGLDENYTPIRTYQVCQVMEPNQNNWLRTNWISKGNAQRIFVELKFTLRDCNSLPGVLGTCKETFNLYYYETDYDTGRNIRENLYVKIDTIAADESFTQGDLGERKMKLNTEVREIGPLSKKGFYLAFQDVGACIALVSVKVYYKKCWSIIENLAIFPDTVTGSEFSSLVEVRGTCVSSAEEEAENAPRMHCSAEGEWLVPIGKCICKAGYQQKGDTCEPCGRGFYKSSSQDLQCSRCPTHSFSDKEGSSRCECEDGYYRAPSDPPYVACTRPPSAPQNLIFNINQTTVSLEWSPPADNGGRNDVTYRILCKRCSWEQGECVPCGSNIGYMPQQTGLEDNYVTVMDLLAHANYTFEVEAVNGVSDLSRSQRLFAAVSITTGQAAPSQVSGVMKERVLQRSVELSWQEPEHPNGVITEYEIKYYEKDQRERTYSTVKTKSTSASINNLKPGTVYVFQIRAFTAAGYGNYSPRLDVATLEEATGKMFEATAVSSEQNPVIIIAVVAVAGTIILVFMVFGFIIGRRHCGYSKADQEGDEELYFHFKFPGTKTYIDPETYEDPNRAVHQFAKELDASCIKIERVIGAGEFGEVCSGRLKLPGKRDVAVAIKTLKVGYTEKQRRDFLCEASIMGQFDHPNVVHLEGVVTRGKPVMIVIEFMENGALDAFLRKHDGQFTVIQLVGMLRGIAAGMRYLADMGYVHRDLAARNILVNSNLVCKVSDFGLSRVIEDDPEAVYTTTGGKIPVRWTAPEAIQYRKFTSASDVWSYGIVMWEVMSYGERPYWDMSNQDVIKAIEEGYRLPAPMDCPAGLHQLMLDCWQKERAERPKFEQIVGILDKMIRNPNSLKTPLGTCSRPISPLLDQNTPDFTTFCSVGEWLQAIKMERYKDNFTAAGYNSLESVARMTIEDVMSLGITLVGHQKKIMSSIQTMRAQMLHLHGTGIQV
Chain of Cyclin-dependent kinase 5/CDK5 activator 1 (Homo sapiens) (Q00535 whole entry): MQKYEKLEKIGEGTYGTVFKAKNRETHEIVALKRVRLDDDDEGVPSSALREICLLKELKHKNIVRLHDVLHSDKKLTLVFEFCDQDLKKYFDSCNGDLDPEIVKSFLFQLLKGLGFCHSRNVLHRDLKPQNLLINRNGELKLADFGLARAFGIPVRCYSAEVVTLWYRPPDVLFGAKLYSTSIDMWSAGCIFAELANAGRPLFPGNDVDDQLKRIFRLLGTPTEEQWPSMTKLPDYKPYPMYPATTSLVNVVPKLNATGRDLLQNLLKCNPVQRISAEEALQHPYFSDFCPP
Chain of Cyclin-dependent kinase 5/CDK5 activator 1 (Homo sapiens) (Q15078 99-307 partner limits assumed): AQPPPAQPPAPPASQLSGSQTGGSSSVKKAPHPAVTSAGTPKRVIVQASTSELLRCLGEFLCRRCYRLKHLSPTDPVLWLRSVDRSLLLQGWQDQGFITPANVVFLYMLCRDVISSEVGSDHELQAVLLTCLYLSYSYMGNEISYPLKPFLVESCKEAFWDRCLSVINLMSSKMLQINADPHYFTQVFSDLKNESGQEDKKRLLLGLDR
Chain of Mitogen-activated protein kinase kinase kinase 11 (Homo sapiens) (Q16584 whole entry, looked up): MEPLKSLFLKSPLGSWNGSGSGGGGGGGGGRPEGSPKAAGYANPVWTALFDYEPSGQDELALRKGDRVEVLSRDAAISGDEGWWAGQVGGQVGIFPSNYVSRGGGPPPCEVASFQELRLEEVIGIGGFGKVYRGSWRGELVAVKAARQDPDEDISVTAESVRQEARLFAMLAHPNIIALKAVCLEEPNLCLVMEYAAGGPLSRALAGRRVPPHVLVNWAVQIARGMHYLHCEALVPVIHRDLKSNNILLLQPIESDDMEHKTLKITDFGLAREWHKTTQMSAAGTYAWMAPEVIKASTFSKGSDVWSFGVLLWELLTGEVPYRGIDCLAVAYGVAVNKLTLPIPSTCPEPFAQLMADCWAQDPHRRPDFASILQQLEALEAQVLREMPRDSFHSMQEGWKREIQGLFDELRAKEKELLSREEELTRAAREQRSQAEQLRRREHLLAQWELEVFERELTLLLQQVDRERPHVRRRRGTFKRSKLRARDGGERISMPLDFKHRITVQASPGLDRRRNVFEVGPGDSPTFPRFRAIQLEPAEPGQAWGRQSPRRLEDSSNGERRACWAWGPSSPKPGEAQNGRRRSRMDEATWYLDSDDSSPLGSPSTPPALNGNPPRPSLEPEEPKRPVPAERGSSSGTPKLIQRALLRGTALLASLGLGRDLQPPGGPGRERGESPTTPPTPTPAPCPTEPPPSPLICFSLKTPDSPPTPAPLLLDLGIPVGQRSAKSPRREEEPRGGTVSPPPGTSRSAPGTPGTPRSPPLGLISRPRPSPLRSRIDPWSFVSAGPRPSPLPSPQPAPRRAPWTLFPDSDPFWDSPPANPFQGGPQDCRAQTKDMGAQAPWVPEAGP
Chain of Mitogen-activated protein kinase 9 (Homo sapiens) (P45984 whole entry, looked up): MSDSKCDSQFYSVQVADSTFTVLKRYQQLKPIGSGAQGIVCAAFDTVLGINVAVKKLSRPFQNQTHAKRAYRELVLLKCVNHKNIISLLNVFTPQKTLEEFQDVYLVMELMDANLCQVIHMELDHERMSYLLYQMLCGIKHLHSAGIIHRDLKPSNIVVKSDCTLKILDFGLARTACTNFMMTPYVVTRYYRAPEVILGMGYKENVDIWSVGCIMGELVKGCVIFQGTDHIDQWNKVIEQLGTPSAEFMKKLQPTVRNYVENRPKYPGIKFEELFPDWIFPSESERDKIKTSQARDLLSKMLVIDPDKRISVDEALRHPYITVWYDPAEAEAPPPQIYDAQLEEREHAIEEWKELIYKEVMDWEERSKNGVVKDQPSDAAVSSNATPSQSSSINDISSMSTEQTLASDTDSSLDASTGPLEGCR
Chain of Activin receptor type-1-like (Homo sapiens) (P37023 whole entry): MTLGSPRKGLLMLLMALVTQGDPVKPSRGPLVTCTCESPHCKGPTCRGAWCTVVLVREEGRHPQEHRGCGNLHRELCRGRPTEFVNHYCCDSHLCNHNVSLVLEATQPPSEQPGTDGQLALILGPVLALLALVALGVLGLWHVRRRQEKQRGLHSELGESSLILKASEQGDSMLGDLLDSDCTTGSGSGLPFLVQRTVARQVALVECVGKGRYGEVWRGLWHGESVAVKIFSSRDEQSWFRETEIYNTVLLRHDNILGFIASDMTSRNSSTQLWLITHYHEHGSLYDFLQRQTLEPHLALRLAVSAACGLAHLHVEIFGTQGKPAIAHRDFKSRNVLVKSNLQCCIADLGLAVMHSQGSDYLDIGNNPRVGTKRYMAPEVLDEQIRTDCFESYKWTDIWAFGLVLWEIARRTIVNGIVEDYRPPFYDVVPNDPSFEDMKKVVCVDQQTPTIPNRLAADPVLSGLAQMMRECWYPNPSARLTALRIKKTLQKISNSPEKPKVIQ

In the case of `C[C@]1(O)C[C@@H](c2nc(-c3ccc4ccc(-c5ccccc5)nc4c3)c3c(N)nccn32)C1`, in assay [1], the inhibition (usually the drop in the measured response relative to a control, in per cent) is -2.06%.

Take `C[C@@]1(C(=O)Nc2ccc(F)nc2)CCCN1c1nc(Nc2cc(C3CC3)n[nH]2)c2cccn2n1`: the inhibition in assay [2] amounted to 0.3%; in assay [3], 2.2%; in [4] it was 1.01%; in assay [5], 3.94%; in assay [6] it was 3.41%; in assay [7] it was 0.72%. Moreover, the inhibition in assay [8] is -2.41%; in assay [9], 2.47%; in [10], -1.74%; in [11], -6.97%.
